According to PubChem BioAssay AID687022 (Broad Institute, 2013):
Active and inactive are the calls of the source.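 Rule for the calls: active = Fitted curve of melting temperature shift crosses the 1.0 threshold at or below the sample's highest valid tested concentration; inconclusive = Flat fit with activity 30 to 70, or invalid fit; inactive = Opposite direction, flat within 30, or no crossing.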

Target: Fibroblast growth factor 22 (Homo sapiens) (UniProt Q9HCT0)
Experiment: FGF22 ligand-induced thermal stabilization – biophysical, thermal shift, cherry-pick, FGF22 synaptogenesis inhibitor project, dose response (AID 687022)
Conditions: recombinant FGF22 thermal shift, SYPRO orange melting

Chain of Fibroblast growth factor 22 (Homo sapiens) (Q9HCT0 whole entry, looked up): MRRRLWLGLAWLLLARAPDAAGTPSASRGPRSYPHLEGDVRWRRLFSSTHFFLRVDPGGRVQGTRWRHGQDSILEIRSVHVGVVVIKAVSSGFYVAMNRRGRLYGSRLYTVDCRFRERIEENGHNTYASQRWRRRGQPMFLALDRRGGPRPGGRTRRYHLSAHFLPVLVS

Cc1[nH]c2ccccc2c1C(=O)NS(=O)(=O)Nc1ccc(Cl)cc1
AbsAC1 (concentration giving Tm-shift threshold 1.0): 3.06 µM

Cc1nc2ccc(NC(=O)c3ccc(C)c(S(=O)(=O)N4CCOCC4)c3)cc2s1
AbsAC1 (concentration giving Tm-shift threshold 1.0): 25.9 µM

COc1cccc(NC(=O)N(C)C[C@H]2Oc3cc(-c4ccccc4F)ccc3S(=O)(=O)N([C@H](C)CO)C[C@H]2C)c1
AbsAC1 (concentration giving Tm-shift threshold 1.0): 4.99 µM

CCn1c2ccccc2c2cc(/C=N/NC(=O)c3ccncc3)ccc21
AbsAC1 (concentration giving Tm-shift threshold 1.0): 25 µM

O=C(N/N=C/c1ccc(O)cc1)c1cccc(N/N=C/c2ccc(O)cc2)c1
AbsAC1 (concentration giving Tm-shift threshold 1.0): 5.77 µM

O=C(N/N=C/c1c[nH]c2ccccc12)c1cccc(Cl)c1
AbsAC1 (concentration giving Tm-shift threshold 1.0): 2.15 µM

CCn1ccnc1CN(C)C(=O)c1ccc2nc(Cc3ccc(OC)cc3)oc2c1
AbsAC1 (concentration giving Tm-shift threshold 1.0): 11.9 µM

O=C1C(Cl)=C(NS(=O)(=O)c2ccc([N+](=O)[O-])cc2)C(=O)c2ccccc21
AbsAC1 (concentration giving Tm-shift threshold 1.0): 7.4 µM

NC(=O)Nc1ccc(C(=O)OCC(=O)Nc2sccc2C(N)=O)cc1
AbsAC1 (concentration giving Tm-shift threshold 1.0): 23.8 µM

COc1ccccc1CNC(=O)C[C@H]1CC[C@@H]2[C@H](COC[C@H](O)CN2C(=O)Nc2ccc(Cl)cc2)O1
AbsAC1 (concentration giving Tm-shift threshold 1.0): 30.5 µM

COc1cc(-c2nc(C)c(C(C)=O)n2O)ccc1OCC(=O)Nc1ccc(Cl)cc1
AbsAC1 (concentration giving Tm-shift threshold 1.0): 10.9 µM

S=c1[nH]c2cc3ccccc3cc2[nH]1
AbsAC1 (concentration giving Tm-shift threshold 1.0): 10.7 µM

CC(=O)Nc1cccc(C(=O)N/N=C/c2c[nH]c3ccccc23)c1
AbsAC1 (concentration giving Tm-shift threshold 1.0): 2.4 µM

COc1ccc(C(=O)Nc2nc(CC(=O)NCCc3ccccc3)cs2)cc1
AbsAC1 (concentration giving Tm-shift threshold 1.0): 11.3 µM

Cc1cccc(NC(=O)c2ccc(-c3ccccc3[N+](=O)[O-])o2)c1
AbsAC1 (concentration giving Tm-shift threshold 1.0): > 38 µM (inactive)

C[C@@H]1CN([C@H](C)CO)S(=O)(=O)c2ccc(-c3ccncc3)cc2O[C@@H]1CN(C)C(=O)Nc1ccc(C(F)(F)F)cc1
AbsAC1 (concentration giving Tm-shift threshold 1.0): 15.3 µM

O=C(N/N=C/c1ccc(OCc2ccccc2)cc1)c1ccc(O)cc1
AbsAC1 (concentration giving Tm-shift threshold 1.0): 3.59 µM

O=C(N/N=C/c1ccc(C(F)(F)F)cc1)c1ccc(O)cc1
AbsAC1 (concentration giving Tm-shift threshold 1.0): 2.48 µM

Cc1[nH]c2ccccc2c1N=Nc1cc(C(=O)O)cc(C(=O)O)c1
AbsAC1 (concentration giving Tm-shift threshold 1.0): 19.9 µM

CN1C(=O)c2cc(NC(=O)c3cccc(F)c3)ccc2OC[C@H]2O[C@@H](CC(=O)NCC3CCCCC3)CC[C@H]21
AbsAC1 (concentration giving Tm-shift threshold 1.0): 22.3 µM

CN1C(=O)c2cc(NC(=O)c3cccc(F)c3)ccc2OC[C@@H]2O[C@H](CC(=O)N3CCc4ccccc4C3)CC[C@@H]21
AbsAC1 (concentration giving Tm-shift threshold 1.0): 17.2 µM

C[C@H](CO)N1C[C@H](C)[C@@H](CN(C)Cc2ccc(C(=O)O)cc2)Oc2cc(/C=C/c3ccccc3)ccc2S1(=O)=O
AbsAC1 (concentration giving Tm-shift threshold 1.0): > 42 µM (inactive)

C[C@@H]1CN([C@@H](C)CO)S(=O)(=O)c2ccc(C3=CCCC3)cc2O[C@@H]1CN(C)C(=O)Nc1ccc2c(c1)OCO2
AbsAC1 (concentration giving Tm-shift threshold 1.0): 20.2 µM

COc1ccc(/C=N/NC(=O)c2cc(-c3ccc4c(c3)OCO4)n[nH]2)cc1OC
AbsAC1 (concentration giving Tm-shift threshold 1.0): 18.1 µM

COc1ccc(S(=O)(=O)N(NC2=NS(=O)(=O)c3ccccc32)C(=O)C(C)C)cc1
AbsAC1 (concentration giving Tm-shift threshold 1.0): > 38 µM (inactive)

COc1ccccc1NC(=O)N[C@@H]1CC[C@@H](CCn2cc(-c3ccccc3OC)nn2)O[C@@H]1CO
AbsAC1 (concentration giving Tm-shift threshold 1.0): 4.76 µM

Oc1ccc(/C=N/N=C/c2ccc(O)c(O)c2)cc1O
AbsAC1 (concentration giving Tm-shift threshold 1.0): 2.05 µM

Cn1cc([N+](=O)[O-])c(C(=O)Nc2ccc3nc(-c4ccccc4)[nH]c3c2)n1
AbsAC1 (concentration giving Tm-shift threshold 1.0): 16 µM

NC(=O)c1ccsc1NC(=O)COC(=O)Cc1c[nH]c2ccccc12
AbsAC1 (concentration giving Tm-shift threshold 1.0): 13.9 µM

O=C(N/N=C/c1ccncc1)c1cc2ccccc2o1
AbsAC1 (concentration giving Tm-shift threshold 1.0): 6.07 µM

O=C(N/N=C\c1c[nH]c2ccccc12)c1ccc(O)cc1
AbsAC1 (concentration giving Tm-shift threshold 1.0): 1.85 µM

COc1ccc(N(CC(=O)N/N=C/c2ccc(OC)c(OC)c2)S(=O)(=O)c2ccccc2)cc1
AbsAC1 (concentration giving Tm-shift threshold 1.0): 18.5 µM

O=C(N/N=C/c1c[nH]c2ccccc12)c1cc2ccccc2o1
AbsAC1 (concentration giving Tm-shift threshold 1.0): 2.71 µM

CC(C)CC(=O)Nc1ccc(C(=O)CN2C(=O)NC3(CCOc4ccccc43)C2=O)cc1 (centres undefined)
AbsAC1 (concentration giving Tm-shift threshold 1.0): 6.42 µM

COc1ccc(-c2cn(CC[C@@H]3CC[C@@H](NC(=O)Nc4ccc(F)cc4)[C@H](CO)O3)nn2)cc1
AbsAC1 (concentration giving Tm-shift threshold 1.0): 12.8 µM

O=c1c2ccccc2[nH]c2ccc(F)cc12
AbsAC1 (concentration giving Tm-shift threshold 1.0): > 38 µM (inactive)

Cc1noc(NC(=O)c2cccc(Cl)c2Cl)c1C#N
AbsAC1 (concentration giving Tm-shift threshold 1.0): 32.7 µM

O=C(N/N=C/c1c[nH]c2ccc(Br)cc12)c1ccc2c(c1)OCO2
AbsAC1 (concentration giving Tm-shift threshold 1.0): 14.3 µM

C/C(=N\NC(=O)c1ccc(NS(=O)(=O)c2cccs2)cc1)c1cccs1
AbsAC1 (concentration giving Tm-shift threshold 1.0): 3.06 µM

S=C(Nc1ccc(Cl)cc1)Nc1ccc2cn[nH]c2c1
AbsAC1 (concentration giving Tm-shift threshold 1.0): 3.25 µM

COc1cccc(NC(=O)N(C)C[C@@H]2Oc3cc(-c4ccccc4F)ccc3S(=O)(=O)N([C@H](C)CO)C[C@@H]2C)c1
AbsAC1 (concentration giving Tm-shift threshold 1.0): 2.04 µM

COc1ccc(/C=N/Nc2ccc([N+](=O)[O-])cc2)cc1O
AbsAC1 (concentration giving Tm-shift threshold 1.0): 4.37 µM

C=C1[C@@H](O)[C@H](Cc2ccccc2)N(Cc2ccccc2Br)S1(=O)=O
AbsAC1 (concentration giving Tm-shift threshold 1.0): 15.5 µM

O=[N+]([O-])c1cccc(S(=O)(=O)Nc2ccc(-c3ccc(N4CCCC4)nn3)cc2)c1
AbsAC1 (concentration giving Tm-shift threshold 1.0): 19.1 µM

O=C(CC1SC(=O)NC1=O)Nc1ccc(Cl)cc1 (centres undefined)
AbsAC1 (concentration giving Tm-shift threshold 1.0): 3.11 µM

O=C(CCc1c[nH]c2ccccc12)Nc1ccc(Oc2cccnc2)cc1
AbsAC1 (concentration giving Tm-shift threshold 1.0): 7.99 µM

CCCCNC(=O)c1onc(CSc2ccc(F)c(F)c2)c1C(=O)NCCCC
AbsAC1 (concentration giving Tm-shift threshold 1.0): 0.929 µM

O=C(Nc1nc(=O)n(C(=O)C2CC2)s1)c1ccccc1
AbsAC1 (concentration giving Tm-shift threshold 1.0): 20.7 µM

CCOc1ccc(NC(=O)CC2C(=O)N(c3ccc(OC)cc3)C(=S)N2Cc2ccccn2)cc1 (centres undefined)
AbsAC1 (concentration giving Tm-shift threshold 1.0): 3.11 µM

O=C(Nc1ccc2c(c1)OCO2)c1ccc(NC2CC2)c([N+](=O)[O-])c1
AbsAC1 (concentration giving Tm-shift threshold 1.0): 17.8 µM

O=C(N/N=C/c1ccncc1)c1cccc(NC(=O)c2ccc(Cl)cc2)c1
AbsAC1 (concentration giving Tm-shift threshold 1.0): 9.27 µM

O=C(Nc1cc(Cl)cc(Cl)c1)N[C@@H]1CC[C@@H](CCNS(=O)(=O)c2cccc(F)c2)O[C@@H]1CO
AbsAC1 (concentration giving Tm-shift threshold 1.0): 5.64 µM

Cc1ccc(C(=O)Nc2nc(=O)n(C(=O)C3CC3)s2)cc1
AbsAC1 (concentration giving Tm-shift threshold 1.0): 11.1 µM

O=c1oc(-c2ccc(O)c(O)c2)cc2cc(O)cc(O)c12
AbsAC1 (concentration giving Tm-shift threshold 1.0): 4.66 µM

O=C(N/N=C/c1ccncc1)c1cccc(N/N=C/c2ccncc2)c1
AbsAC1 (concentration giving Tm-shift threshold 1.0): 8.51 µM

COc1ccccc1NC(=O)N[C@@H]1CC[C@H](CCn2cc(-c3ccccc3OC)nn2)O[C@@H]1CO
AbsAC1 (concentration giving Tm-shift threshold 1.0): 32 µM

O=C(Cc1n[nH]c(=O)[nH]c1=O)N/N=C/c1c(O)ccc2ccccc12
AbsAC1 (concentration giving Tm-shift threshold 1.0): 9.89 µM

O=C(Nc1cccc(C(F)(F)F)c1)c1cccc(NS(=O)(=O)c2ccc(O)c(C(=O)O)c2)c1
AbsAC1 (concentration giving Tm-shift threshold 1.0): 2.6 µM

N#Cc1cccc(NC(=O)c2ccc(S(=O)(=O)N3CCOCC3)cc2)c1
AbsAC1 (concentration giving Tm-shift threshold 1.0): 4 µM

Oc1ccc(-c2nc3ccccc3s2)c(O)c1
AbsAC1 (concentration giving Tm-shift threshold 1.0): 5.15 µM

CCOC(=O)c1c(N)sc(C(=O)Nc2ccccc2)c1C
AbsAC1 (concentration giving Tm-shift threshold 1.0): 3.02 µM

CC1(C(=O)NS(=O)(=O)Cc2cccc(Cl)c2)CCN1C(=O)C1(c2ccc(Cl)cc2)CCC1 (centres undefined)
AbsAC1 (concentration giving Tm-shift threshold 1.0): > 10 µM (inactive)

O=C(N/N=C/c1c[nH]c2ccc(Br)cc12)C1CC1
AbsAC1 (concentration giving Tm-shift threshold 1.0): 7.7 µM

COc1ccc(N(C)S(=O)(=O)c2cccc(C(=O)Nc3ccc(N4CCOCC4)cc3)c2)cc1
AbsAC1 (concentration giving Tm-shift threshold 1.0): 9 µM

COc1cc(NC(=O)c2cnc(N)o2)cc(C(=O)Nc2cccc(C(F)(F)F)c2)c1
AbsAC1 (concentration giving Tm-shift threshold 1.0): 3.44 µM

CC1([N+](=O)[O-])COP(=O)(NC2CC2)OC1 (centres undefined)
AbsAC1 (concentration giving Tm-shift threshold 1.0): 8.33 µM

COc1cccc(NC(=O)N(C)C[C@H]2Oc3cc(-c4ccccc4F)ccc3S(=O)(=O)N([C@@H](C)CO)C[C@H]2C)c1
AbsAC1 (concentration giving Tm-shift threshold 1.0): 5.23 µM

O=C(NNC(=O)c1ccccc1F)c1ccc(NS(=O)(=O)c2ccc(F)cc2)cc1
AbsAC1 (concentration giving Tm-shift threshold 1.0): 18.2 µM

COc1ccc(-c2ccc([C@@H]3[C@@H](CO)N4CCCCN(C(=O)c5ccc(F)cc5)C[C@@H]34)cc2)cc1
AbsAC1 (concentration giving Tm-shift threshold 1.0): 3.54 µM

O=C(C[C@@H]1CC[C@H]2[C@@H](COC[C@@H](O)CN2S(=O)(=O)c2cccc(F)c2)O1)Nc1ccccc1
AbsAC1 (concentration giving Tm-shift threshold 1.0): 3.53 µM

N#Cc1ccc(NC(=O)Nc2cccc(C#N)c2)cc1
AbsAC1 (concentration giving Tm-shift threshold 1.0): 4.49 µM

O=C(N/N=C/c1ccc(Cl)c(Cl)c1)c1ccc2nc[nH]c2c1
AbsAC1 (concentration giving Tm-shift threshold 1.0): 2.35 µM

CC(=O)c1c(C)nc(-c2ccc(OCC(=O)Nc3cccc(C)c3C)cc2)n1O
AbsAC1 (concentration giving Tm-shift threshold 1.0): 29.7 µM

CCCOc1ccc(NC(=O)CC2C(=O)N(C)C(=S)N2Cc2ccc3c(c2)OCO3)cc1 (centres undefined)
AbsAC1 (concentration giving Tm-shift threshold 1.0): 3.25 µM

COc1cccc(C#Cc2ccc([C@H]3[C@H]4CN(S(=O)(=O)c5ccccc5C)CC(=O)N4[C@H]3CO)cc2)c1
AbsAC1 (concentration giving Tm-shift threshold 1.0): 16.6 µM

COc1cc2cc(NC(C)=O)cc(NCc3ccccc3)c2cc1OC
AbsAC1 (concentration giving Tm-shift threshold 1.0): 8.13 µM

O=C(N/N=C/c1c[nH]c2ccccc12)c1cccc(O)c1
AbsAC1 (concentration giving Tm-shift threshold 1.0): 2.9 µM

O=C(Cc1c[nH]c2ccccc12)N1CCN(S(=O)(=O)c2cccc(Cl)c2Cl)CC1
AbsAC1 (concentration giving Tm-shift threshold 1.0): 13.4 µM

O=C(Nc1ccc(O)cc1)c1cccc(Oc2ccc([N+](=O)[O-])cc2)c1
AbsAC1 (concentration giving Tm-shift threshold 1.0): 4.32 µM

CCOc1cc(C=NNC(=O)c2cccc(S(=O)(=O)N3CCCC3)c2)ccc1O
AbsAC1 (concentration giving Tm-shift threshold 1.0): 6.84 µM

COc1ccc(S(=O)(=O)Nc2ccc(NC(C)=O)cc2)cc1Cl
AbsAC1 (concentration giving Tm-shift threshold 1.0): 26.6 µM

CC(C)(C)c1ccc(C2CC2C(=O)N/N=C\c2ccc[nH]2)cc1 (centres undefined)
AbsAC1 (concentration giving Tm-shift threshold 1.0): 14.3 µM

Cc1ccn(-c2ccc(NC(=O)c3cccs3)cc2)n1
AbsAC1 (concentration giving Tm-shift threshold 1.0): 3.72 µM

CCOc1ccc(-c2cc(C(=O)N/N=C/c3cccnc3)c3ccccc3n2)cc1
AbsAC1 (concentration giving Tm-shift threshold 1.0): 13 µM
